Measurements reported in PubChem BioAssay (NCI).
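Following 48 hours of exposure in 96-well plates, responses at five concentrations were used to interpolate endpoints linearly. The concentration for full growth arrest is given as TGI.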

Tests used:
Test in all cases: DTP human tumour cell line panel, 48 h
[1] = system: SK-MEL-2 melanoma
[2] = system: SW-620 colon
[3] = system: UACC-62 melanoma
[4] = system: HCC-2998 colon
[5] = system: HOP-92 NSCLC
[6] = system: IGROV1 ovarian
[7] = system: OVCAR-5 ovarian
[8] = system: SN12C renal
[9] = system: TK-10 renal
[10] = system: SK-MEL-5 melanoma
[11] = system: MDA-MB-435
[12] = system: SF-539 CNS
[13] = system: LOX IMVI melanoma
[14] = system: SK-MEL-28 melanoma
[15] = system: M14 melanoma
[16] = system: MALME-3M melanoma
[17] = system: EKVX NSCLC
[18] = system: NCI-H522 lung
[19] = system: UACC-257 melanoma
[20] = system: MCF7 breast
[21] = system: HCT-116 colon
[22] = system: SR leukemia
[23] = system: MDA-N
[24] = system: ACHN renal
[25] = system: HT29 colon
[26] = system: SF-295 CNS
[27] = system: BT-549 breast
[28] = system: 786-0 renal
[29] = system: NCI-H226 lung
[30] = system: SNB-75 CNS
[31] = system: OVCAR-3 ovarian
[32] = system: T-47D breast
[33] = system: SF-268 CNS
[34] = system: CAKI-1 renal
[35] = system: OVCAR-8 ovarian
[36] = system: DU-145 prostate
[37] = system: RXF 393 renal
[38] = system: K-562 leukemia
[39] = system: OVCAR-4 ovarian
[40] = system: MDA-MB-231 breast
[41] = system: HS 578T breast
[42] = system: HOP-62 NSCLC
[43] = system: A498 renal
[44] = system: MOLT-4 leukemia
[45] = system: A549 NSCLC
[46] = system: NCI-H460 lung
[47] = system: HCT-15 colon
[48] = system: U251 CNS
[49] = system: KM12 colon
[50] = system: PC-3 prostate
[51] = system: NCI/ADR-RES ovarian
[52] = system: SNB-19 CNS
[53] = system: RPMI-8226 leukemia
[54] = system: COLO 205 colon
[55] = system: HL-60(TB) leukemia
[56] = system: SK-OV-3 ovarian
[57] = system: CCRF-CEM leukemia
[58] = system: SNB-78 CNS
[59] = system: LXFL 529 NSCLC
[60] = system: NCI-H23 lung
[61] = system: KM20L2 colon
[62] = system: UO-31 renal
[63] = system: DMS 114 small cell lung
[64] = system: M19-MEL melanoma

`Nc1cc(-c2ccc(Cl)cc2)nn1-c1nc2ccccc2nc1-c1ccccc1` gave a TGI [1] greater than 100 µM, a TGI [2] greater than 100 µM and a TGI [3] greater than 100 µM. It also gave a TGI [4] greater than 100 µM, a TGI [5] greater than 100 µM and a TGI [6] greater than 100 µM. For the same molecule, the TGI [7] was greater than 100 µM, the TGI [8] was greater than 100 µM and the TGI [9] was greater than 100 µM. For the same molecule, the TGI [10] was greater than 100 µM, the TGI [11] was greater than 100 µM and the TGI [12] was greater than 100 µM. It also gave a TGI [13] greater than 100 µM, a TGI [14] greater than 100 µM and a TGI [15] greater than 100 µM. It also gave a TGI [16] greater than 100 µM, a TGI [17] greater than 100 µM and a TGI [18] greater than 100 µM. The TGI [19] was greater than 100 µM, the TGI [20] was greater than 100 µM and the TGI [21] was greater than 100 µM. It also gave a TGI [22] greater than 100 µM, a TGI [23] greater than 100 µM and a TGI [24] greater than 100 µM. The TGI [25] was greater than 100 µM, the TGI [26] was greater than 100 µM and the TGI [27] was greater than 100 µM. It also gave a TGI [28] greater than 100 µM, a TGI [29] greater than 100 µM and a TGI [30] of 64.9 µM. It also gave a TGI [31] greater than 100 µM, a TGI [32] greater than 100 µM and a TGI [33] greater than 100 µM. It also gave a TGI [34] greater than 100 µM, a TGI [35] greater than 100 µM and a TGI [36] greater than 100 µM. For the same molecule, the TGI [37] was greater than 100 µM, the TGI [38] was greater than 100 µM and the TGI [39] was greater than 100 µM. The TGI [40] was greater than 100 µM, the TGI [41] was greater than 100 µM and the TGI [42] was greater than 100 µM. It also gave a TGI [43] greater than 100 µM, a TGI [44] greater than 100 µM and a TGI [45] greater than 100 µM. For the same molecule, the TGI [46] was greater than 100 µM, the TGI [47] was greater than 100 µM and the TGI [48] was greater than 100 µM. It also gave a TGI [49] greater than 100 µM, a TGI [50] greater than 100 µM and a TGI [51] greater than 100 µM. The TGI [52] was greater than 100 µM, the TGI [53] was greater than 100 µM and the TGI [54] was greater than 100 µM. The TGI [55] was greater than 100 µM, the TGI [56] was greater than 100 µM and the TGI [57] was greater than 100 µM.
`COc1ccc2c(c1)CC[C@@H]1C2CC[C@]2(C)C(=O)N(N)C(=O)CC12` (stereo partly specified) showed a TGI [1] greater than 100 µM, a TGI [58] greater than 100 µM and a TGI [59] greater than 100 µM. For the same molecule, the TGI [3] was greater than 100 µM, the TGI [5] was greater than 100 µM and the TGI [6] was greater than 100 µM. It also gave a TGI [7] greater than 100 µM, a TGI [60] greater than 100 µM and a TGI [14] greater than 100 µM. It also gave a TGI [15] greater than 100 µM, a TGI [16] greater than 100 µM and a TGI [18] greater than 100 µM. It also gave a TGI [19] greater than 100 µM, a TGI [21] greater than 100 µM and a TGI [22] greater than 100 µM. It also gave a TGI [24] greater than 100 µM, a TGI [25] greater than 100 µM and a TGI [26] greater than 100 µM. It also gave a TGI [28] greater than 100 µM, a TGI [30] greater than 100 µM and a TGI [31] greater than 100 µM. The TGI [61] was greater than 100 µM, the TGI [33] was greater than 100 µM and the TGI [62] was greater than 100 µM. It also gave a TGI [63] greater than 100 µM, a TGI [38] greater than 100 µM and a TGI [39] greater than 100 µM. It also gave a TGI [42] greater than 100 µM, a TGI [43] greater than 100 µM and a TGI [44] greater than 100 µM. The TGI [46] was greater than 100 µM, the TGI [64] was greater than 100 µM and the TGI [48] was greater than 100 µM. For the same molecule, the TGI [49] was greater than 100 µM, the TGI [52] was greater than 100 µM and the TGI [53] was greater than 100 µM. For the same molecule, the TGI [54] was greater than 100 µM, the TGI [56] was greater than 100 µM and the TGI [57] was greater than 100 µM.
